“Also recorded” adds a separate entry of the source. Where no end group is shown, it is not given here.
Columns and labels:
[1] = test system: blood pressure of awake C57BL/6 mice; assay: Hypotensive activity on awake mice (tail cuff, systolic blood pressure); assay type: in vivo, mouse; conditions: caudal vein, 0.1 and 1 mg/kg, FIG. 2, listed as HC021-007
Method: A C57BL/6 mice with a body weight of 30 to 40 g (Charles River Laboratories Japan, Inc.) were each placed in a retaining appliance of a non-preheating, non-invasive blood pressure monitor for mice and rats (MODEL MK-2000; Muromachi Kikai Co., Ltd.), and a cuff-pulse sensor was then attached to the root of the tail. After confirming that the blood pressure of each mouse had been stable, the mouse was subjected to the experiment.
A peptide solution was prepared by diluting each peptide with a normal saline, depending on the dose. In the case of the dose of 0.1 mg/kg, a 0.02 mg/mL peptide solution was prepared. In the case of the dose of 1 mg/kg, a 0.2 mg/mL peptide solution was prepared. The amount of the solution to be administered was set at 5 mL/kg. As a positive control, a human atrial natriuretic peptide (hANP) was used. As a negative control, a normal saline was used. Each peptide was administered via the caudal vein using a syringe with a 29G needle. Three and ten minutes after the administration, the systolic blood pressure and the heart rate were measured.

[2] = test system: blood pressure of awake Sprague-Dawley IGS male rats; assay: Hypotensive activity on awake rats; assay type: in vivo, rat; design: key to Hypotensive activity (dose/rat) 10 nmol / Hypotensive activity (dose/rat) 30 nmol: Extremely strong activity (+++): A decrease in systolic blood pressure is 30 mmHg or more, and the time required for recovery is 5 minutes or more.; Strong activity (++): A decrease in systolic blood pressure is 20 mmHg or more and less than 30 mmHg, or the time required for recovery is less than 5 minutes.; Activity observed (+): A decrease in systolic blood pressure is less than 20 mmHg.; Activity not observed (−); conditions: for Hypotensive activity (dose/rat) 10 nmol / Hypotensive activity (dose/rat) 30 nmol / Hypotensive activity (dose/rat) 100 nmol: Table 4, intravenous; for Hypotensive activity (dose/rat) 10 nmol: 10 nmol/rat; for Hypotensive activity (dose/rat) 30 nmol: 30 nmol/rat; for Hypotensive activity (dose/rat) 100 nmol: 100 nmol/rat
Method: 50 mg/kg pentobarbital sodium was intraperitoneally administered to 8- to 10-week-old Sprague-Dawley IGS male rats (Charles River Laboratories Japan, Inc.) for anesthesia. Thereafter, a jugular vein cannula (Silascon 0.5-1.0) was inserted into each rat for use in peptide administration, and a carotid artery cannula (PE50) was inserted into each rat for use in the measurement of blood pressure. At least 3 hours after the surgery, it was confirmed that the rats were awoken from the anesthesia based on general conditions such as the posture, respiration, and the like of the rats. Thereafter, the rats were subjected to the experiment.
The carotid artery cannula was connected with a pressure transducer (PE23XL; manufactured by Nihon Kohden Corporation), and an apparatus formed by incorporating a blood pressure measurement unit (AP-641G; manufactured by Nihon Kohden Corporation) and an instantaneous heart rate measurement unit (AT-601G; manufactured by Nihon Kohden Corporation) into a multi-purpose preamplifier (RP-6004; manufactured by Nihon Kohden Corporation) was used to record the blood pressure and heart rate of each rat. The blood pressure was calibrated using a mercury manometer included in a stand-type electromanometer (MP-25S; manufactured by Nihon Kohden Corporation). The recording paper was adjusted, such that 20 mm or 40 mm on the recording paper corresponded to 100 mmHg. A solvent in which each peptide had been dissolved was used as a negative control in blood pressure fluctuation.
Each peptide was dissolved in a concentration of 1 mM in a 5% mannitol solution to prepare a peptide solution. Thereafter, depending on dose, it was diluted with a 5% mannitol solution. In the case of the dose of 10 nmol/rat, a 1 mM peptide solution was 30 times diluted, and 300 μL of the diluted solution was administered. In the case of the dose of 30 nmol/rat, a 1 mM peptide solution was 10 times diluted, and 300 μl of the diluted solution was administered. In the case of the dose of 100 nmol/rat, a 1 mM peptide solution was 3 times diluted, and 300 μL of the diluted solution was administered. Each peptide was intravenously administered via the jugular vein cannula, and the systolic blood pressure, diastolic blood pressure, and heart rate were then measured.
The definition of the strength of hypotensive activity was the same as that of Example 3.

[3] = test system: blood pressure of anesthetized Sprague-Dawley IGS male rats; assay: Hypotensive activity in anesthetized rats, invasive blood pressure measurement after intravenous administration; assay type: in vivo, rat; conditions: for Hypotensive activity (dose/rat) 10 nmol / Hypotensive activity (dose/rat) 30 nmol / hypotensive activity (in words) / Hypotensive activity (dose/rat) 100 nmol: anesthetized rats; for Hypotensive activity (dose/rat) 10 nmol / Hypotensive activity (dose/rat) 30 nmol / Hypotensive activity (dose/rat) 100 nmol: intravenous; for Hypotensive activity (dose/rat) 10 nmol: 10 nmol/rat; for Hypotensive activity (dose/rat) 30 nmol: 30 nmol/rat; for dose dependence of hypotensive activity: anesthetized rats, 10, 30, 100 nmol/rat; for hypotensive activity (in words): Table 1 and FIG. 1, 10 or 30 nmol/rat; for Hypotensive activity (dose/rat) 100 nmol: 100 nmol/rat
[4] = test system: anti-[N-Cys]-HC021-004 serum; assay: ELISA binding of anti-[N-Cys]-HC021-004 serum to coated peptides; design: species or system rabbit; conditions: absorbance at 405 nm, FIG. 3
Description: Using [N-Cys]-HC021-004 (a peptide prepared by binding cysteine to the amino terminus of HC021-004) as an antigen, a rabbit was immunized with the antigen to produce antiserum (anti-[N-Cys]-HC021-004 serum).
The ability of this antiserum to bind to peptides having various types of sequences was examined using Protein Detector™ ELISA kit (AP; BluePhos System; manufactured by KPL). Reactions were all carried out at a room temperature. A 96-well immunoplate (maxi-coated; manufactured by Nunc) was coated (amount: 100 uL/well) with each peptide having a different type of sequence (concentration: 1 ng/100 uL) for 1 hour. Then, it was blocked with a 300 uL/well blocking solution for 1 hour. Thereafter, the serially diluted antiserum was added in an amount of 100 uL/well to the immunoplate, followed by reaction for 1 hour. After completion of washing, 500-times diluted Anti-rabbit IgG HRP Ab (manufactured by KPL) was added thereto in an amount of 100 uL/well, followed by reaction for 1 hour. After completion of washing, ABTS (manufactured by KPL) used as a substrate was added thereto in an amount of 100 uL/well. Thirty minutes later, the absorbance at 405 nm was measured.

Substance | hypotensive activity (in words), change in systolic blood pressure [1] | hypotensive activity (in words) [2] | Hypotensive activity (dose/rat) 10 nmol [2] | Hypotensive activity (dose/rat) 30 nmol [2] | Hypotensive activity (dose/rat) 100 nmol [2] | Hypotensive activity (dose/rat) 10 nmol ([3]; Table 1) | Hypotensive activity (dose/rat) 30 nmol ([3]; Table 1) | Hypotensive activity (dose/rat) 10 nmol ([3]; Table 2) | Hypotensive activity (dose/rat) 30 nmol ([3]; Table 2) | Hypotensive activity (dose/rat) 10 nmol ([3]; Table 3) | Hypotensive activity (dose/rat) 30 nmol ([3]; Table 3) | dose dependence of hypotensive activity [3] | hypotensive activity (in words) ([3]; listed as HC021-007) | Hypotensive activity (dose/rat) 100 nmol ([3]; Table 1) | Hypotensive activity (dose/rat) 100 nmol ([3]; Table 2) | Hypotensive activity (dose/rat) 100 nmol ([3]; Table 3) | hypotensive activity (in words) ([3]; listed as HC021-004) | binding of anti-[N-Cys]-HC021-004 serum to the peptide [4]
ATVRNEDKWKPLNNPRNRDLFFRRLQAYFK-amide (C-terminal amide) [Compound 5] | exhibited a hypotensive activity even on the awake mice; also recorded: lower the blood pressure of awake mice | observed to have a hypotensive activity even on the awake rats | − | ++ (Strong activity (++): A decrease in systolic blood pressure is 20 mmHg or more and less than 30 mmHg, or the time required for recovery is less than 5 minutes.) | +++ (Extremely strong activity (+++): A decrease in systolic blood pressure is 30 mmHg or more, and the time required for recovery is 5 minutes or more.) | ++ (Strong activity (++): A decrease in systolic blood pressure is 20 mmHg or more and less than 30 mmHg, or the time required for recovery is less than 5 minutes.) | +++ (Extremely strong activity (+++): A decrease in systolic blood pressure is 30 mmHg or more, and the time required for recovery is 5 minutes or more.) | ++ (Strong activity (++): A decrease in systolic blood pressure is 20 mmHg or more and less than 30 mmHg, or the time required for recovery is less than 5 minutes.) | +++ (Extremely strong activity (+++): A decrease in systolic blood pressure is 30 mmHg or more, and the time required for recovery is 5 minutes or more.) | ++ (Strong activity (++): A decrease in systolic blood pressure is 20 mmHg or more and less than 30 mmHg, or the time required for recovery is less than 5 minutes.) | +++ (Extremely strong activity (+++): A decrease in systolic blood pressure is 30 mmHg or more, and the time required for recovery is 5 minutes or more.) | enhanced their hypotensive activity in a dose-dependent manner | observed to have a hypotensive activity; also recorded: act to lower the blood pressure of rats |  |  |  |  | 
NRDLFFRRLQAYFK-amide (NRDLFFRRLQAYFK-NH2) [Compound 3] |  | observed to have a hypotensive activity even on the awake rats | − | − | ++ (Strong activity (++): A decrease in systolic blood pressure is 20 mmHg or more and less than 30 mmHg, or the time required for recovery is less than 5 minutes.) | + (Activity observed (+): A decrease in systolic blood pressure is less than 20 mmHg.) | ++ (Strong activity (++): A decrease in systolic blood pressure is 20 mmHg or more and less than 30 mmHg, or the time required for recovery is less than 5 minutes.) | + (Activity observed (+): A decrease in systolic blood pressure is less than 20 mmHg.) | ++ (Strong activity (++): A decrease in systolic blood pressure is 20 mmHg or more and less than 30 mmHg, or the time required for recovery is less than 5 minutes.) | + (Activity observed (+): A decrease in systolic blood pressure is less than 20 mmHg.) | ++ (Strong activity (++): A decrease in systolic blood pressure is 20 mmHg or more and less than 30 mmHg, or the time required for recovery is less than 5 minutes.) | enhanced their hypotensive activity in a dose-dependent manner |  | +++ (Extremely strong activity (+++): A decrease in systolic blood pressure is 30 mmHg or more, and the time required for recovery is 5 minutes or more.) | +++ (Extremely strong activity (+++): A decrease in systolic blood pressure is 30 mmHg or more, and the time required for recovery is 5 minutes or more.) | +++ (Extremely strong activity (+++): A decrease in systolic blood pressure is 30 mmHg or more, and the time required for recovery is 5 minutes or more.) | observed to have a hypotensive activity; also recorded: act to lower the blood pressure of rats | bound
